From ChEMBL document CHEMBL3352370, “Substrate derived peptidic α-ketoamides as inhibitors of the malarial protease PfSUB1” (Bioorg Med Chem Lett, 2014) come the findings set out here.

Numbered stars: 1 amine (or outer) side, 2 acyl side, 3 side chain; on linkers, the order of the positions; unused ones are H or OH. Square brackets hold non-standard residues; d marks the D form. Peptide text beside a SMILES is read from it. ξ: configuration not given here. ξ3Amino2oxobutanoyl = CC(N[*:1])C(=O)C(=O)[*:2]; GABA = NCCCC(=O)O; βAla = NCCC(=O)O

For this experiment, the target named is T1, Subtilisin-like protease 1 (Plasmodium falciparum, UniProt O61142).
T1 sequence (O61142 whole entry): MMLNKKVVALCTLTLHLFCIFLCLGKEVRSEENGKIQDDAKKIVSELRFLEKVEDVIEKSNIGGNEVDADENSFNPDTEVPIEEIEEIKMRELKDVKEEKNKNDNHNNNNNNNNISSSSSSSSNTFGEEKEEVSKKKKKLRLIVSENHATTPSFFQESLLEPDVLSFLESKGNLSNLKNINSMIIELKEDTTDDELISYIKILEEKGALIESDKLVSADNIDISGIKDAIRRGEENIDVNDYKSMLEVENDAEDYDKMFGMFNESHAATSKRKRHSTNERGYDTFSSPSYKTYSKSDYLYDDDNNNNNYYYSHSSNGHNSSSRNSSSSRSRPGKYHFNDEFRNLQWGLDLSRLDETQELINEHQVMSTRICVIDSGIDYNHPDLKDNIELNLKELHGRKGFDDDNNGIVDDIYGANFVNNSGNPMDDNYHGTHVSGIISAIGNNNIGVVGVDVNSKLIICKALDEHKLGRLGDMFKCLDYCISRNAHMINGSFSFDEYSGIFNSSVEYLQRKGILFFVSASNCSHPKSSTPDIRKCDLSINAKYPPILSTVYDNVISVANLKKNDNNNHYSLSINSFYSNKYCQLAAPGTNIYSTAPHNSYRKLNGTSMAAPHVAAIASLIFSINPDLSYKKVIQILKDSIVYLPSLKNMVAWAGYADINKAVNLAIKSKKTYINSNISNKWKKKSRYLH
Nature of the experiment: Inhibition of Plasmodium falciparum SUB1.
Broadly, the Ki is a measure of affinity in units of concentration, obtained from inhibition or displacement. In the case of `COc1ccc(Nc2cc(C)c3cc(NC(=O)c4cc5ccccc5[nH]4)ccc3n2)cc1`, the Ki came out at 6 µM.

Broadly, the IC50 is the concentration at which inhibition is half-maximal. Read a low IC50 as greater potency. Compound `CC[C@H](C)[C@H](NC(=O)[C@H](CCCCN)NC(C)=O)C(=O)N[C@H](C(=O)N[C@@H](C)C(=O)NC(C)C(=O)C(=O)NCCCC(=O)O)[C@@H](C)O` (stereo partly drawn) (Ac-KITA[ξ3Amino2oxobutanoyl][GABA]-OH) gave an IC50 of 3.1 µM.

`CC[C@H](C)[C@H](NC(C)=O)C(=O)N[C@H](C(=O)NC(C)(C)C(=O)NC(C)C(=O)C(=O)NCCC(=O)O)[C@@H](C)O` (stereo partly drawn) showed an IC50 of over 50 µM.

The compound `O=C(Nc1ccc(-c2nc3cc(NC(=O)c4ccccc4)ccc3[nH]2)cc1)c1ccccc1` had an inhibition constant (Ki) of 8 µM.

Take `CC[C@H](C)[C@H](NC(C)=O)C(=O)N[C@H](C(=O)NC1(C(=O)NC(C)C(=O)C(=O)NCCC(=O)O)CC1)[C@@H](C)O` (stereo partly drawn): the IC50 was over 50 µM.

`CC[C@H](C)[C@H](NC(C)=O)C(=O)N[C@H](C(=O)NCC(=O)NC(C(=O)C(=O)NCCC(=O)O)C(C)C)[C@@H](C)O` (stereo partly drawn): inhibition was half-maximal at 4.5 µM (IC50).

Turning to `CCC(NC(=O)CNC(=O)[C@@H](NC(=O)[C@@H](NC(C)=O)[C@@H](C)CC)[C@@H](C)O)C(=O)C(=O)NCCC(=O)O` (stereo partly drawn), inhibition was half-maximal at 1.2 µM (IC50).

In turn, `Oc1ccc(C2Oc3c(c(O)cc4c3C3c5c(O)cc(O)c(O)c5OC(c5ccc(O)c(O)c5)(O4)C3O)CC2O)cc1O` (stereo not drawn) returned an IC50 of 0.3 µM.

In turn, `O=C(CCCCCNC(=O)CCCC[C@@H]1SC[C@@H]2NC(=O)N[C@@H]21)NCCCCCC(=O)Nc1ccc2c(Cl)c(OCCc3ccccc3)oc(=O)c2c1` gave an IC50 of 18 µM.

Compound `CC[C@H](C)[C@H](NC(C)=O)C(=O)N[C@H](C(=O)N[C@@H](C)C(=O)NC(C[C@@H]1CCNC1=O)C(=O)C(=O)NCCC(=O)O)[C@@H](C)O` (stereo partly drawn) registered an IC50 of over 50 µM.

In turn, `CC[C@@H](C)[C@H](NC(=O)[C@H](CCCCN)NC(C)=O)C(=O)N[C@H](C(=O)N[C@@H](C)C(=O)NC(CCC(N)=O)C(=O)C(=O)NCCC(=O)O)[C@@H](C)O` (stereo partly drawn) showed an IC50 of 7 µM.

Regarding `CC[C@H](C)[C@H](NC(=O)[C@H](CCCCN)NC(C)=O)C(=O)N[C@H](C(=O)N[C@@H](C)C(=O)NC(C)C(=O)C(=O)NCCC(N)=O)[C@@H](C)O` (stereo partly drawn) (Ac-KITA[ξ3Amino2oxobutanoyl][βAla]-NH2), the IC50 was 38 µM.

For the compound `CC[C@H](C)[C@H](NC(C)=O)C(=O)N[C@H](C(=O)N[C@@H](C)C(=O)NC(CCC(=O)O)C(=O)C(=O)NCCC(=O)O)[C@@H](C)O` (stereo partly drawn), the IC50 was 5 µM.

For `CC[C@H](C)[C@H](NC(C)=O)C(=O)N[C@H](C(=O)N[C@@H](C)C(=O)NC(C(=O)C(=O)NCCC(=O)O)C(C)C)[C@@H](C)O` (stereo partly drawn), half-maximal inhibition (IC50) was put at 20 µM.

In the case of `CC[C@H](C)[C@H](NC(=O)[C@H](CCCCN)NC(C)=O)C(=O)N[C@H](C(=O)N[C@@H](C)C(=O)NC(C)C(=O)C(=O)NCCC(=O)O)[C@@H](C)O` (stereo partly drawn) (Ac-KITA[ξ3Amino2oxobutanoyl][βAla]-OH), 1 µM corresponded to half-maximal inhibition (IC50).

In the case of `CC[C@H](C)[C@H](NC(C)=O)C(=O)N[C@H](C(=O)N[C@@H](C)C(=O)NC(C)C(=O)C(=O)NCCC(=O)O)[C@@H](C)O` (stereo partly drawn), the half-inhibitory concentration (IC50) amounted to 2.5 µM.

`CC[C@H](C)[C@H](NC(C)=O)C(=O)N[C@H](C(=O)N[C@@H](C)C(=O)NC(Cc1ccccc1)C(=O)C(=O)NCCC(=O)O)[C@@H](C)O` (stereo partly drawn): it took 100 µM to reach half-maximal inhibition (IC50).

`CC[C@H](C)[C@H](NC(C)=O)C(=O)N[C@H](C(=O)NCC(=O)NC(C)C(=O)C(=O)NCCC(=O)O)[C@@H](C)O` (stereo partly drawn) displayed a half-inhibitory concentration (IC50) of 0.9 µM.

In turn, `CC[C@H](C)[C@H](NC(=O)[C@H](CCCCN)NC(C)=O)C(=O)N[C@H](C(=O)N[C@@H](C)C(=O)NC(C)C(=O)C(=O)NCC(=O)O)[C@@H](C)O` (stereo partly drawn) (Ac-KITA[ξ3Amino2oxobutanoyl]G-OH) yielded an IC50 of 10 µM.

`CC[C@H](C)[C@H](NC(C)=O)C(=O)N[C@H](C(=O)N[C@@H](C)C(=O)NC(CCC(=O)N(C)C)C(=O)C(=O)NCCC(=O)O)[C@@H](C)O` (stereo partly drawn) gave an IC50 of over 50 µM.

`CC[C@H](C)[C@H](NC(C)=O)C(=O)N[C@H](C(=O)N[C@@H](C)C(=O)NC(C(=O)C(=O)NCCC(=O)O)c1ccccc1)[C@@H](C)O` (stereo partly drawn) had an IC50 of over 50 µM.

On to `CC[C@H](C)[C@H](NC(C)=O)C(=O)N[C@@H](C)C(=O)N[C@@H](C)C(=O)NC(C)C(=O)C(=O)NCCC(=O)O` (stereo partly drawn), for which inhibition was half-maximal at 30 µM (IC50).

In turn, `CC(=O)N[C@@H](C)C(=O)N[C@H](C(=O)NCC(=O)NC(C)C(=O)C(=O)NCCC(=O)O)[C@@H](C)O` (stereo partly drawn) gave an IC50 of over 50 µM.
